Strand notation (5' to 3'): a small letter for the sugar, then the base; units joined by * are phosphorothioate-linked, units joined directly phosphodiester-linked; [ ] holds rarer units or linkages, { } end groups; capitals alone tell only the bases. [ms] = mesyl phosphoramidate linkage; e = 2'-O-(2-methoxyethyl) (MOE); k = constrained ethyl (cEt); [5mC] = 5-methylcytosine; d = 2'-deoxy (DNA)
How the values were obtained:
[1] = tested on: human APOE RNA; experiment: Dose-dependent inhibition of human APOE RNA in HepG2 cells, electroporation, 24 hours (Example 6); type: cell-based
Procedure: Modified oligonucleotides selected from the examples above were tested at various doses in HepG2.
HepG2 cells plated at a density of 50,000 cells per well were treated by electroporation with various concentrations of modified oligonucleotide as specified in the tables below. […] APOE RNA levels were measured using the human primer probe set RTS3073 (described herein above). APOE RNA levels were normalized to human GAPDH. Human GAPDH was amplified using human primer probe set RTS 104 (described herein above). Results are presented as percent APOE RNA, relative to the amount of APOE RNA in untreated control cells (% UTC). The half maximal inhibitory concentration (IC50) of each modified oligonucleotide was calculated in GraphPad Prism 10 (GraphPad Software, San Diego, CA) and is also presented in the tables below.

[2] = tested on: human APOE RNA; experiment: Activity in APOE C57BL/6NTac-Apoeem7250 knock-in mice, single ICV bolus, 4 weeks (Example 10); type: in vivo; details: single ICV bolus 300 μg
Procedure: Modified oligonucleotides described above were tested in the APOE C57BL/6NTac-Apoeem7250 knock-in mouse model described above.
APOE C57BL/6NTac-Apoeem7250 knock-in mice were divided into groups of 2-4 mice each. Each mouse received a single ICV bolus of 300 μg of modified oligonucleotide. A group of 3-4 mice received a single ICV bolus with PBS as a negative control.
Four weeks post treatment, mice were sacrificed and RNA was extracted from cortical brain tissue and spinal cord for quantitative real-time RT-PCR analysis of RNA expression of APOE using human primer probe set RTS3073 (described herein above). APOE RNA levels were normalized to mouse Ppia. Mouse Ppia was amplified using primer probe set m_cyclo24 (described herein above). Results are presented as percent human APOE RNA relative to the amount of human APOE RNA in PBS treated animals, (% control). Each experiment is identified in separate tables below.

[3] = tested on: human APOE RNA; experiment: Activity in APOE C57BL/6NTac-Apoeem7250 knock-in mice, single ICV bolus, 16 weeks (Example 12); type: in vivo; details: single ICV bolus 300 μg, 16 weeks post treatment, normalized to mouse Ppia
How it was run: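 Knock-in mice (3-4 per group) received one ICV bolus of 300 μg oligonucleotide, PBS as control. After 16 weeks, human APOE RNA in cortex and spinal cord measured by RT-qPCR, normalized to mouse Ppia, and reported as % of PBS control.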

[4] = tested on: human APOE RNA; experiment: Dose-dependent inhibition of human APOE RNA in HepG2 cells, electroporation, 50,000 cells per well, RT-PCR normalized to GAPDH (Example 4, Tables 8-10); type: cell-based; details: HepG2, electroporation, 24-hour treatment
Procedure: Modified oligonucleotides selected from the examples above were tested at various doses in HepG2 cells. The modified oligonucleotides were tested in a series of experiments that had the same culture conditions. Each experiment is identified in separate tables below.
HepG2 cells plated at a density of 50,000 cells per well were treated by electroporation with various concentrations of modified oligonucleotide as specified in the tables below. […] APOE RNA levels were measured using the human primer probe set RTS3073 (forward sequence […], designated herein as SEQ ID NO: 7; reverse sequence CCATCAGCGCCCTCAGTT, designated herein as SEQ ID NO: 8; probe sequence […], designated herein as SEQ ID NO:9). APOE RNA levels were normalized to human GAPDH. […] Results are presented as percent APOE RNA, relative to the amount of APOE RNA in untreated control cells (UTC).

[5] = Cortex, C57BL/6NTac-Apoeem7250 knock-in mice, 4 weeks (Table 22)
[6] = Spinal Cord, C57BL/6NTac-Apoeem7250 knock-in mice, 4 weeks (Table 22)
[7] = cortex, 4 weeks post treatment, normalized to mouse Ppia
[8] = spinal cord, 4 weeks post treatment, normalized to mouse Ppia

Row | Substance | IC50 [1] [nM] | APOE RNA (% UTC) ([1]; 5 nM) | APOE RNA (% UTC) ([1]; 13 nM) | APOE RNA (% UTC) ([1]; 33 nM) | APOE RNA (% UTC) ([1]; 82 nM) | APOE RNA (% UTC) ([1]; 205 nM) | APOE RNA (% UTC) ([1]; 512 nM) | APOE RNA (% UTC) ([1]; 1,280 nM) | APOE RNA (% UTC) ([1]; 3,200 nM) | APOE RNA (% UTC) ([1]; 8,000 nM) | APOE RNA (% UTC) ([1]; 20,000 nM) | APOE RNA (% control) Cortex [2, 5] [% control] | APOE RNA (% control) Spinal Cord [2, 6] [% control] | APOE RNA (% UTC) ([4]; 5 nM) | APOE RNA (% UTC) ([4]; 13 nM) | APOE RNA (% UTC) ([4]; 33 nM) | APOE RNA (% UTC) ([4]; 82 nM) | APOE RNA (% UTC) ([4]; 205 nM) | APOE RNA (% UTC) ([4]; 512 nM) | APOE RNA (% UTC) ([4]; 1,280 nM) | also measured
1 | 1736529 (e[5mC]*eT*eT*eG*eG*eTdG[ms]dA[ms]dA[ms]dT*d[5mC]*dT*dT*dT*dA[ms]dT*kT*kA*eA*eA; antisense) [Compound 1736529] | 1120 | 92 | 102 | 92 | 115 | 75 | 56 | 45 | 29 | 13 | 30 | 51 | 46 | – | – | – | – | – | – | – | APOE RNA (% control) Cortex [3]: 60 % control; APOE RNA (% control) Spinal Cord [3]: 28 % control
2 | 1736528 (e[5mC]*eT*eT*eG*eG*eTdG[ms]dA[ms]dA[ms]dT*d[5mC]*dT*dT*dT*dA[ms]dT*kT*eA*eA*eA; antisense) [Compound 1736528] | 1630 | 100 | 112 | 107 | 116 | 84 | 62 | 50 | 39 | 23 | 16 | 57 | 56 | – | – | – | – | – | – | – | –
3 | 1736534 (e[5mC]*eT*eT*eG*eGeT*dG[ms]dA[ms]dA[ms]dT*d[5mC]*dT*dT*dT*dA[ms]dT*kT*kA*eA*eA; antisense) [Compound 1736534] | 890 | 99 | 110 | 93 | 103 | 65 | 50 | 45 | 24 | 19 | 25 | 31 | 55 | – | – | – | – | – | – | – | APOE RNA (% control) Cortex [3]: 46 % control; APOE RNA (% control) Spinal Cord [3]: 34 % control
4 | 1736513 (e[5mC]*eTeT*eG*eG*kT*dG[ms]dA[ms]dA[ms]dT*d[5mC]*dT*dT*dT*dA[ms]dT*eT*eA*eA*eA; antisense) [Compound 1736513] | 720 | 106 | 110 | 114 | 89 | 72 | 47 | 37 | 33 | 9 | 4 | 42 | 52 | – | – | – | – | – | – | – | APOE RNA (% control) Cortex [3]: 53 % control; APOE RNA (% control) Spinal Cord [3]: 30 % control
5 | 1746806 (k[5mC]*kT*dT[ms]dG[ms]kG*dT[ms]dG[ms]dA[ms]dA[ms]dT*d[5mC]*dT*dT*dT*dA[ms]dT*dT[ms]kA*kA*kA; antisense) [Compound 1746806] | – | – | – | – | – | – | – | – | – | – | – | – | – | 122 | 101 | 107 | 91 | 83 | 80 | 57 | APOE RNA (% UTC) ([4]; 3,200 nM): 39 % UTC; APOE RNA (% UTC) ([4]; 8,000 nM): 25 % UTC; APOE RNA (% UTC) ([4]; 20,000 nM): 37 % UTC; IC50 [4]: 2580 nM; APOE RNA (% control) Cortex [2, 7]: 92 % control; APOE RNA (% control) Spinal Cord [2, 8]: 75 % control
6 | 1746786 (k[5mC]*kT*dT[ms]dG[ms]kG*dT[ms]dG[ms]dA[ms]dA[ms]dT*d[5mC]*dT*dT*dT*dA[ms]dT*kT*kA*dA[ms]kA; antisense) [Compound 1746786] | – | – | – | – | – | – | – | – | – | – | – | – | – | 85 | 93 | 90 | 75 | 87 | 63 | 39 | APOE RNA (% UTC) ([4]; 3,200 nM): 34 % UTC; APOE RNA (% UTC) ([4]; 8,000 nM): 18 % UTC; APOE RNA (% UTC) ([4]; 20,000 nM): 14 % UTC; IC50 [4]: 1010 nM; APOE RNA (% control) Cortex [2, 7]: 79 % control; APOE RNA (% control) Spinal Cord [2, 8]: 52 % control
7 | 1746796 (k[5mC]*kT*dT[ms]dG[ms]kG*dT[ms]dG[ms]dA[ms]dA[ms]dT*d[5mC]*dT*dT*dT*dA[ms]dT*kT*dA[ms]kA*kA; antisense) [Compound 1746796] | – | – | – | – | – | – | – | – | – | – | – | – | – | 110 | 126 | 128 | 137 | 119 | 89 | 71 | APOE RNA (% UTC) ([4]; 3,200 nM): 40 % UTC; APOE RNA (% UTC) ([4]; 8,000 nM): 28 % UTC; APOE RNA (% UTC) ([4]; 20,000 nM): 20 % UTC; IC50 [4]: 3010 nM; APOE RNA (% control) Cortex [2, 7]: 81 % control; APOE RNA (% control) Spinal Cord [2, 8]: 68 % control
8 | 1746794 (k[5mC]*kT*kT*dG[ms]dG[ms]dT[ms]dG[ms]dA[ms]dA[ms]dT*d[5mC]*dT*dT*dT*dA[ms]dT*kT*dA[ms]kA*kA; antisense) [Compound 1746794] | – | – | – | – | – | – | – | – | – | – | – | – | – | 119 | 107 | 94 | 91 | 67 | 72 | 37 | APOE RNA (% UTC) ([4]; 3,200 nM): 16 % UTC; APOE RNA (% UTC) ([4]; 8,000 nM): 9 % UTC; APOE RNA (% UTC) ([4]; 20,000 nM): 3 % UTC; IC50 [4]: 800 nM; APOE RNA (% control) Cortex [2, 7]: 76 % control; APOE RNA (% control) Spinal Cord [2, 8]: 41 % control
